We go through 19 molecules from US11242350B2, “Spirocyclic ROR-gamma modulators” (Escalier Biosciences B.V., priority 2018, dated 2022).

RORγt, sequence (P51449 269-508): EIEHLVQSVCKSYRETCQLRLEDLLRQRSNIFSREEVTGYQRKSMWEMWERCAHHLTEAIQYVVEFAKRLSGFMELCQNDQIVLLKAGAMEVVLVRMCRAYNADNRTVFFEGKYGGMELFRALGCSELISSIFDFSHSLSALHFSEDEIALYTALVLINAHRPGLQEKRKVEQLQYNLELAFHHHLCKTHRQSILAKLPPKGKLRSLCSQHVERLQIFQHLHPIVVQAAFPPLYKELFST

This test has as its target RORγt (Homo sapiens (Human), UniProt P51449). In words: Gal4 ligand binding assay (RORγt Gal fusion luciferase reporter assay in HEK293T cells). The test is classed as cell-based. As to conditions: RORγt inverse agonists in RORγt Gal fusion assay. As to the method: The N-terminal DNA binding domains (DBD) of the native RORγ and RORγt receptors have been substituted with that of the yeast GAL4-DBD and stably transfected in HEK293T cells that also stably express luciferase under the regulation by upstream activation sequence of yeast Gal4. These cells constitutively express high level RORγ activity due to binding of endogenous co-factors. Both agonist and inverse agonist activity can be detected. The assay was performed according to kit manufacturer's instructions as follows. 10 mM compound stocks were diluted serially 1:3 with DMSO and further diluted with provided media to generate 10 titration points from 60 μM to 3 nM. These treatment conditions were added to the plates as 2× media in 100 μL volume. Each plate includes a positive control with 10 titration points as well as 6 negative control wells with vehicle only, with final DMSO concentration of 0.2%. RORγ reporter cells were rapidly thawed and added to the plates in 100 μL volume. The plates were incubated for 24 h in a 37° C. humidified 5% CO2 incubator. Media was removed before the addition of room temperature luciferous detection substrate. After 5 minute incubation, relative light units (RLUs) were quantified using a plate reading luminometer. Data was normalized to […] with only 0.2%0DMSO. Before establishing internal controls, ursolic acid was used as control.
Turning to `Cc1cc(CN2CC3(C2)CN(S(C)(=O)=O)C3)ccc1-c1ccc(C(O)(C(F)(F)F)C(F)(F)F)cc1` [Example 50, 1,1,1,3,3,3-hexafluoro-2-(2′-methyl-4′-((6-(methylsulfonyl)-2,6-diazaspiro[3.3]heptan-2-yl)methyl)-[1,1′-biphenyl]-4-yl)propan-2-ol], the IC50 (usually the concentration that inhibits the measured activity by half) was in the range of 50 to 250 nM.

`CCc1cc(CN2CC3(C2)CN(S(C)(=O)=O)C3)c(F)cc1-c1ccc(C(O)(C(F)(F)F)C(F)(F)F)cc1Cl` [Example 83, 2-(2-chloro-2′-ethyl-5′-fluoro-4′-((6-(methylsulfonyl)-2,6-diazaspiro[3.3]heptan-2-yl)methyl)-[1,1′-biphenyl]-4-yl)-1,1,1,3,3,3-hexafluoropropan-2-ol]: the IC50 is below 50 nM. In turn, `CS(=O)(=O)N1CC2(CN(Cc3ccc(-c4ccc(C(O)(C(F)(F)F)C(F)(F)F)cc4)cc3O)C2)C1` [Example 61, 4′-(1,1,1,3,3,3-hexafluoro-2-hydroxypropan-2-yl)-4-((6-(methylsulfonyl)-2,6-diazaspiro[3.3]heptan-2-yl)methyl)-[1,1′-biphenyl]-3-ol] came in with an IC50 of 50 to 250 nM. Turning to `CCc1cc(CN2CC3(C2)CN(C(C)=O)C3)ccc1-c1ccc(C(O)(C(F)(F)F)C(F)(F)F)cc1` [Example 48, 1-(6-((2-ethyl-4′-(1,1,1,3,3,3-hexafluoro-2-hydroxypropan-2-yl)-[1,1′-biphenyl]-4-yl)methyl)-2,6-diazaspiro[3.3]heptan-2-yl)ethan-1-one], the IC50 is above 250 nM. For `CCc1cc(CN2CC3(C2)CN(S(C)(=O)=O)C3)c(F)cc1-c1ccc(C(O)(C(F)(F)F)C(F)(F)F)cc1` [Example 36, 2-(2′-ethyl-5′-fluoro-4′-((6-(methylsulfonyl)-2,6-diazaspiro[3.3]heptan-2-yl)methyl)-[1,1′-biphenyl]-4-yl)-1,1,1,3,3,3-hexafluoropropan-2-ol] the value was below 50 nM; for `CCc1c(F)c(CN2CC3(C2)CN(S(C)(=O)=O)C3)cc(F)c1-c1ccc(C(O)(C(F)(F)F)C(F)(F)F)cc1Cl` [Example 72, 2-(2-chloro-2′-ethyl-3′,6′-difluoro-4′-((6-(methylsulfonyl)-2,6-diazaspiro[3.3]heptan-2-yl)methyl)-[1,1′-biphenyl]-4-yl)-1,1,1,3,3,3-hexafluoropropan-2-ol], below 50 nM; for `CS(=O)(=O)N1CC2(CN(Cc3cc(F)c(-c4ccc(C(O)(C(F)(F)F)C(F)(F)F)cc4Cl)c(C4CC4)c3F)C2)C1` [Example 92, 2-(2-chloro-2′-cyclopropyl-3′,6′-difluoro-4′-((6-(methylsulfonyl)-2,6-diazaspiro[3.3]heptan-2-yl)methyl)-[1,1′-biphenyl]-4-yl)-1,1,1,3,3,3-hexafluoropropan-2-ol], below 50 nM.

In turn, `CC(C)c1cc(CN2CC3(C2)CN(S(C)(=O)=O)C3)ccc1-c1ccc(C(O)(C(F)(F)F)C(F)(F)F)cc1` [Example 43, 1,1,1,3,3,3-hexafluoro-2-(2′-isopropyl-4′-((6-(methylsulfonyl)-2,6-diazaspiro[3.3]heptan-2-yl)methyl)-[1,1′-biphenyl]-4-yl)propan-2-ol] registered an IC50 below 50 nM.

For `CCc1c(F)c(CN2CC3(C2)CN(S(C)(=O)=O)C3)cc(F)c1-c1ccc(C(O)(C(F)(F)F)C(F)(F)F)cc1C` [Example 68, 2-(2′-ethyl-3′,6′-difluoro-2-methyl-4′-((6-(methylsulfonyl)-2,6-diazaspiro[3.3]heptan-2-yl)methyl)-[1,1′-biphenyl]-4-yl)-1,1,1,3,3,3-hexafluoropropan-2-ol], the half-maximal inhibitory concentration (IC50) was below 50 nM. Next, `CCc1cc(CN2CC3(C2)CN(S(C)(=O)=O)C3)c(F)cc1-c1ccc(C(O)(C(F)(F)F)C(F)(F)F)cc1F` [Example 82, 2-(2′-ethyl-2,5′-difluoro-4′-((6-(methylsulfonyl)-2,6-diazaspiro[3.3]heptan-2-yl)methyl)-[1,1′-biphenyl]-4-yl)-1,1,1,3,3,3-hexafluoropropan-2-ol]: below 50 nM.

Regarding `CCc1cc(CN2CC3(C2)CN(S(=O)(=O)C2CC2)C3)ccc1-c1ccc(C(O)(C(F)(F)F)C(F)(F)F)cc1` [Example 41, 2-(4′-((6-(cyclopropylsulfonyl)-2,6-diazaspiro[3.3]heptan-2-yl)methyl)-2′-ethyl-[1,1′-biphenyl]-4-yl)-1,1,1,3,3,3-hexafluoropropan-2-ol], the IC50 fell in the range of 50 to 250 nM. As for `CCc1cc(C(O)(C(F)(F)F)C(F)(F)F)ccc1-c1ccc(CN2CC3(C2)CN(S(C)(=O)=O)C3)cc1C` [Example 76, 2-(2-ethyl-2′-methyl-4′-((6-(methylsulfonyl)-2,6-diazaspiro[3.3]heptan-2-yl)methyl)-[1,1′-biphenyl]-4-yl)-1,1,1,3,3,3-hexafluoropropan-2-ol], the IC50 is below 50 nM. For `CCc1cc(CN2CC3(C2)CN(S(=O)(=O)CC)C3)ccc1-c1ccc(C(O)(C(F)(F)F)C(F)(F)F)cc1` [Example 22, 2-(2′-ethyl-4′-((6-(ethylsulfonyl)-2,6-diazaspiro[3.3]heptan-2-yl)methyl)-[1,1′-biphenyl]-4-yl)-1,1,1,3,3,3-hexafluoropropan-2-ol] the value was 50 to 250 nM; for `CCc1cc(CN2CC3(CCN(S(C)(=O)=O)CC3)C2)ccc1-c1ccc(C(O)(C(F)(F)F)C(F)(F)F)cc1` [Example 33, 2-(2′-ethyl-4′-((7-(methylsulfonyl)-2,7-diazaspiro[3.5]nonan-2-yl)methyl)-[1,1′-biphenyl]-4-yl)-1,1,1,3,3,3-hexafluoropropan-2-ol], 50 to 250 nM; for `CCc1cc(CN2CC3(C2)CS(=O)(=O)C3)ccc1-c1ccc(C(O)(C(F)(F)F)C(F)(F)F)cc1` [Example 26, 6-((2-ethyl-4′-(1,1,1,3,3,3-hexafluoro-2-hydroxypropan-2-yl)-[1,1′-biphenyl]-4-yl)methyl)-2-thia-6-azaspiro[3.3]heptane 2,2-dioxide], 50 to 250 nM.

For the molecule `Cc1cc(C(O)(C(F)(F)F)C(F)(F)F)ccc1-c1cccc(N2CC3(C2)CN(S(C)(=O)=O)C3)c1C` [Example 66, 2-(2,2′-dimethyl-3′-(6-(methylsulfonyl)-2,6-diazaspiro[3.3]heptan-2-yl)-[1,1′-biphenyl]-4-yl)-1,1,1,3,3,3-hexafluoropropan-2-ol], the 50% inhibitory concentration (IC50) fell in the range of 50 to 250 nM. In the case of `Cc1cc(C(O)(C(F)(F)F)C(F)(F)F)ccc1-c1cc(F)c(CN2CC3(C2)CN(S(C)(=O)=O)C3)cc1C(C)C` [Example 79, 1,1,1,3,3,3-hexafluoro-2-(5′-fluoro-2′-isopropyl-2-methyl-4′-((6-(methylsulfonyl)-2,6-diazaspiro[3.3]heptan-2-yl)methyl)-[1,1′-biphenyl]-4-yl)propan-2-ol], the IC50 is below 50 nM. Next, `CCc1cc(CN2CCC3(CCN(S(C)(=O)=O)C3)C2)ccc1-c1ccc(C(O)(C(F)(F)F)C(F)(F)F)cc1` (stereo not shown) [Example 31, 2-(2′-ethyl-4′-((7-(methylsulfonyl)-2,7-diazaspiro[4.4]nonan-2-yl)methyl)-[1,1′-biphenyl]-4-yl)-1,1,1,3,3,3-hexafluoropropan-2-ol]: below 50 nM; `CCc1cc(CN2CC(CN(C)S(C)(=O)=O)C2)ccc1-c1ccc(C(O)(C(F)(F)F)C(F)(F)F)cc1` [Example 29, N-((1-((2-ethyl-4′-(1,1,1,3,3,3-hexafluoro-2-hydroxypropan-2-yl)-[1,1′-biphenyl]-4-yl)methyl)azetidin-3-yl)methyl)-N-methylmethanesulfonamide]: above 250 nM.
